{
  "source": "patent US20160174603A1",
  "about": "“Electronic Vapor Liquid Composition and Method of Use” (priority 2014, published 2016)",
  "origin": "cited, not measured here",
  "key": {"[1]": {"target": "norepinephrine transporter (NAT) (Homo sapiens, UniProt P23975)", "sequence (P23975 whole entry)": "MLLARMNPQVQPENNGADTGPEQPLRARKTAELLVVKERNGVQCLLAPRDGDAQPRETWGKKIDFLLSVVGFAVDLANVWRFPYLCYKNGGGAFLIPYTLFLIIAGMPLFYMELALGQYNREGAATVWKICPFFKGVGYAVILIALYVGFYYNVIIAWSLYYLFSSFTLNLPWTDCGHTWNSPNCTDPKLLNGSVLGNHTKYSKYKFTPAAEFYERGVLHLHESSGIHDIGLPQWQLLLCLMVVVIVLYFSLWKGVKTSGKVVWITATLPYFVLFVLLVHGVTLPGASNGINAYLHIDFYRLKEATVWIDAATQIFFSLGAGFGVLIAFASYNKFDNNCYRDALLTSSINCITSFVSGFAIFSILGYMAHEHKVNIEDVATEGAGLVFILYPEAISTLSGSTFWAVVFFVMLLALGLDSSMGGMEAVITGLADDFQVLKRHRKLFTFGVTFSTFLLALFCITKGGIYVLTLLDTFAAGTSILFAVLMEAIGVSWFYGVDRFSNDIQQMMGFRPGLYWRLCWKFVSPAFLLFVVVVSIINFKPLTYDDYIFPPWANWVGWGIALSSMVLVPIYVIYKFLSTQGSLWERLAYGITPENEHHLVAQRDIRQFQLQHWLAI", "details": "both enantiomeric forms"}, "[2]": {"target": "T1, TRPC6 receptor (Homo sapiens, UniProt Q9Y210)", "T1 sequence (Q9Y210 1-931)": "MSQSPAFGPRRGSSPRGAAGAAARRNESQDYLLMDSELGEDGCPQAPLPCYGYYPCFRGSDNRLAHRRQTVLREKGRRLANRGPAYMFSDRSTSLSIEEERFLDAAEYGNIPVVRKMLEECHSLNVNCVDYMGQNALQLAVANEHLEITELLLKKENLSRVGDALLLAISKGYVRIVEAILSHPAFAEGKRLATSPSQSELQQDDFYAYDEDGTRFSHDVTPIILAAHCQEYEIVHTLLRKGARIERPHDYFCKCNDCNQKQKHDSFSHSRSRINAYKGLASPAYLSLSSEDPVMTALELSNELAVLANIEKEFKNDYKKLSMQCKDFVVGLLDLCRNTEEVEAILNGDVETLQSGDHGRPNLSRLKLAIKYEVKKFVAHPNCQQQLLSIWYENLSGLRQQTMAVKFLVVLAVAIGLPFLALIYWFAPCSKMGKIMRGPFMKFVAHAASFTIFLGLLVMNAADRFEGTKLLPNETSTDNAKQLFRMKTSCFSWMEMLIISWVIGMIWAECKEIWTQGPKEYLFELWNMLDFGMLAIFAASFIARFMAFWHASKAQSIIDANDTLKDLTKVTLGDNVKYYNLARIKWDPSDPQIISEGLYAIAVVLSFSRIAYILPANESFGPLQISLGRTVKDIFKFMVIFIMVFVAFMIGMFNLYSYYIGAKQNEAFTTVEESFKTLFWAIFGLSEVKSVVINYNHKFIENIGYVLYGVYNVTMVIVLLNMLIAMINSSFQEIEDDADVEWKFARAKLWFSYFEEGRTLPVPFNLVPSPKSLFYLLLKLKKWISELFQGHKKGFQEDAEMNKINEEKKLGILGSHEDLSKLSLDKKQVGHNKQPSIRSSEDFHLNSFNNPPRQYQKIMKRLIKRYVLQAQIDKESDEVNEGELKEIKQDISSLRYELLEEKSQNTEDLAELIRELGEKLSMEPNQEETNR"}, "[3]": {"test_system": "thermal hyperalgesia"}, "[4]": {"test_system": "adenosine receptor", "details": "in vitro"}, "[5]": {"target": "T2, MAO-B (Homo sapiens, UniProt P27338)", "T2 sequence (P27338 1-520)": "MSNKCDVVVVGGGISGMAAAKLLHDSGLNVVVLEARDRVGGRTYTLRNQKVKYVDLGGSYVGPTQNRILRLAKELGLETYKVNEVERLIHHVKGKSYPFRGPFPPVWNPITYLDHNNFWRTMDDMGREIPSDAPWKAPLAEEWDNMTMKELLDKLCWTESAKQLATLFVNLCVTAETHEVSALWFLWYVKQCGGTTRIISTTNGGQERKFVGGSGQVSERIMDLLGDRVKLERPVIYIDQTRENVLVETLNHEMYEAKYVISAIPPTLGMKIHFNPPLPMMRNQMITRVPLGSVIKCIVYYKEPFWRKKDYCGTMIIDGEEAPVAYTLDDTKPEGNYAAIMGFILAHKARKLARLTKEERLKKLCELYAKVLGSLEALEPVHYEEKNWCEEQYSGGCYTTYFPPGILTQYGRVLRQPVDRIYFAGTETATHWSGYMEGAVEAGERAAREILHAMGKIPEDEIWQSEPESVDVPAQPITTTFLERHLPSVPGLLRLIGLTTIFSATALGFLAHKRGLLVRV", "details": "read-out: Ki, reversible MAO-B inhibitor"}, "[6]": {"test_system": "dopamine levels in the nucleus accumbens", "details": "rat, in vivo"}, "[7]": {"test_system": "calcium channel"}, "[8]": {"test_system": "NMDA-induced current"}, "[9]": {"target": "acetylcholinesterase (Homo sapiens, UniProt P22303)", "sequence (P22303 32-614, species assumed)": "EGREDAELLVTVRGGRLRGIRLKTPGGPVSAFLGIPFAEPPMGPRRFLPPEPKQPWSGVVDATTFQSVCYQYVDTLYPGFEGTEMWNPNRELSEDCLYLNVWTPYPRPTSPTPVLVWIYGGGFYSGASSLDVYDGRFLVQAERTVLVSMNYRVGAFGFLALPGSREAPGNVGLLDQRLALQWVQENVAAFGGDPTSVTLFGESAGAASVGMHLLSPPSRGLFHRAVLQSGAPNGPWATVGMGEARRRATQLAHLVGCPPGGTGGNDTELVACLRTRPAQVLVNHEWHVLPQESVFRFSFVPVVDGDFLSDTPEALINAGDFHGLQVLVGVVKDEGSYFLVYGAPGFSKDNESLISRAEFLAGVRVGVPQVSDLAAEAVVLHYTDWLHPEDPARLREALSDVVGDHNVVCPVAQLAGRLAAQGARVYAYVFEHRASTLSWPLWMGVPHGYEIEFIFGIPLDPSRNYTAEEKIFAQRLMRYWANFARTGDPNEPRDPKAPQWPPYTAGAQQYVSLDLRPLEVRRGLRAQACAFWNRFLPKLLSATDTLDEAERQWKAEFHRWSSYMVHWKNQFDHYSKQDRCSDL", "details": "in vitro"}},
  "data": [
    {"compound": "COC1=CC(=O)O[C@@H](/C=C/c2ccccc2)C1", "note": "[Kavain]", "values": [
      {"measurement": "reuptake of norepinephrine at the transporter (NAT)", "setting": "[1]", "value": "inhibits the reuptake of norepinephrine"}
    ]},
    {"compound": "CC(C)=CCC[C@]1(C)[C@@H](CC=C(C)C)C[C@@]2(CC=C(C)C)C(=O)[C@]1(C(=O)C(C)C)C(=O)C(CC=C(C)C)=C2O", "note": "[Hyperforin]", "values": [
      {"measurement": "TRPC6 receptor activity", "setting": "[2]", "value": "TRPC6 receptor agonists"}
    ]},
    {"compound": "O=C(O)[C@H]1O[C@@H](Oc2cc3oc(-c4ccccc4)cc(=O)c3c(O)c2O)[C@H](O)[C@@H](O)[C@@H]1O", "note": "[Baicalin]", "values": [
      {"measurement": "effects in a rat model of thermal hyperalgesia", "setting": "[3]", "value": "anti-inflammatory and analgesic effects"}
    ]},
    {"compound": "C=C1C(=O)O[C@@H]2[C@H]3C(CO)=CC(=O)C3=C(C)C[C@@H](O)[C@@H]12", "note": "[lactucin]", "values": [
      {"measurement": "adenosine receptor activity", "setting": "[4]", "value": "adenosine receptor agonist"}
    ]},
    {"compound": "COc1cc(/C=C/c2ccccc2)oc(=O)c1", "note": "[Desmethoxyyangonin]", "values": [
      {"measurement": "Ki", "setting": "[5]", "value": 280, "unit": "nM"},
      {"measurement": "dopamine levels in the nucleus accumbens", "setting": "[6]", "value": "able to increase dopamine levels"}
    ]},
    {"compound": "CCC(C)C(=O)[C@]12C(=O)[C@](CC=C(C)C)(C[C@H](CC=C(C)C)[C@@]1(C)CCC=C(C)C)C(=O)C(CC=C(C)C)=C2O", "note": "(stereo partly shown) [adhyperforin]", "values": [
      {"measurement": "TRPC6 receptor activity", "setting": "[2]", "value": "TRPC6 receptor agonists"}
    ]},
    {"compound": "CC[C@H]1CN2CC[C@]3(C(=O)Nc4ccccc43)[C@@H]2C[C@@H]1/C(=C\\OC)C(=O)OC", "note": "[rhynchophylline]", "values": [
      {"measurement": "calcium channel activity", "setting": "[7]", "value": "calcium channel blocker"},
      {"measurement": "effect on NMDA-induced current", "setting": "[8]", "value": "reduces NMDA-induced current"}
    ]},
    {"compound": "lactucopicrin", "values": [
      {"measurement": "acetylcholinesterase activity", "setting": "[9]", "value": "acetylcholinesterase inhibitor"}
    ]}
  ]
}
